The record followed here is ChEMBL document CHEMBL4359925, “Rational discovery of a highly novel and selective mTOR inhibitor” (Bioorg Med Chem Lett, 2019).

In experiment [1] the target is Serine/threonine-protein kinase mTOR (Homo sapiens, UniProt P42345). Description: Inhibition of human mTOR measured after 30 mins in presence of ATP by Lanthascreen TR-FRET assay.
Experiment [2] deals with Phosphatidylinositol 4,5-bisphosphate 3-kinase catalytic subunit alpha isoform (Homo sapiens, UniProt P42336). As to the kind of experiment: Inhibition of PI3K alpha (unknown origin).
Phosphatidylinositol 4,5-bisphosphate 3-kinase catalytic subunit alpha isoform, sequence (P42336 whole entry, canonical isoform): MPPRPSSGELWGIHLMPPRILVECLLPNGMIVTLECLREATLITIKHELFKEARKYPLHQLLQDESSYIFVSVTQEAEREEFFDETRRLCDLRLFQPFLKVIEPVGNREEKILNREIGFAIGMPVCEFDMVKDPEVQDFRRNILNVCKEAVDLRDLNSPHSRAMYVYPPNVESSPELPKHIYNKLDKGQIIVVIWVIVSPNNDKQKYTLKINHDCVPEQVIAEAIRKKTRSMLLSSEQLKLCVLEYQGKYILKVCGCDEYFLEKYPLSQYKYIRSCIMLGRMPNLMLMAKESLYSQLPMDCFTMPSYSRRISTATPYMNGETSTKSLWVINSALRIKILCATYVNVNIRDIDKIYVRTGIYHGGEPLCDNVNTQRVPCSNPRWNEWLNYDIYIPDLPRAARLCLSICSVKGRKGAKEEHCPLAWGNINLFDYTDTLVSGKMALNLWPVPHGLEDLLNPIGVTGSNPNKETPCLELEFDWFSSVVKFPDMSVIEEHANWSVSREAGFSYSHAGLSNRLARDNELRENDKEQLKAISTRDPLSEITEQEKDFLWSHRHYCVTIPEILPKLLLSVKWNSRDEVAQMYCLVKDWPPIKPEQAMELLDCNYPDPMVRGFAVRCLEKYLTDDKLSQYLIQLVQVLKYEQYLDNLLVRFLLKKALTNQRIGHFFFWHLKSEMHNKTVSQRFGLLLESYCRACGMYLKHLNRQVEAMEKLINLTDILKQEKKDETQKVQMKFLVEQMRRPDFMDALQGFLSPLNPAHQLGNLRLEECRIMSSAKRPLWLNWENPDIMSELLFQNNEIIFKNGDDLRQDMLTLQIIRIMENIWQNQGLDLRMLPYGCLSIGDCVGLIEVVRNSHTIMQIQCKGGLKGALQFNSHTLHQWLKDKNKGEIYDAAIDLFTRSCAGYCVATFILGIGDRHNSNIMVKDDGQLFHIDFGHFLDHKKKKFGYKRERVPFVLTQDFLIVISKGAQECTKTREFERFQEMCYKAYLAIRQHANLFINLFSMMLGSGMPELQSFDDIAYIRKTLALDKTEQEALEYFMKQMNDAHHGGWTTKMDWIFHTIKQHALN

In general, IC50 refers to the concentration that inhibits the measured activity by half. For `CNC(=O)Nc1ccc(-c2ncc3c(n2)N2CCOCC2CC(=O)N3)cc1` (centres undefined), the IC50 in experiment [1] is 1580 nM; in experiment [2] it was 2510 nM.

Consider `CNC(=O)Nc1ccc(-c2ncc3c(n2)N2CCOCC2CO3)cc1` (centres undefined), for which the IC50 in experiment [1] was 501 nM; in experiment [2] it was 50.1 nM.
